According to patent publication US9415018B2, “Methods for improving muscle strength” (Washington University, priority 2012, dated 2016):

How the values were obtained:
[1] = test system: mdx mouse diaphragm muscle; assay: Fluorescence staining of nanoparticle and rapamycin deposition in mdx diaphragm; type: in vivo; conditions: mdx mouse treated with rapamycin-loaded nanoparticles
Description: The nanoparticles were rhodamine-labeled, and the rapamycin was labeled with Cy-7.

[2] = humans; cited from earlier work

distribution of Cy-7 labeled rapamycin in diaphragm muscle [1]: both punctate and diffuse staining
Compound: CO[C@H]1C[C@@H]2CC[C@@H](C)[C@@](O)(O2)C(=O)C(=O)N2CCCC[C@H]2C(=O)O[C@H]([C@H](C)C[C@@H]2CC[C@@H](O)[C@H](OC)C2)CC(=O)[C@H](C)/C=C(\C)[C@@H](O)[C@@H](OC)C(=O)[C@H](C)C[C@H](C)/C=C/C=C/C=C/1C [rapamycin]
oral absorption [2]: 18%
